Source: ChEMBL document CHEMBL3616440, “Non-basic azolotriazinone MCHR1 antagonists for the treatment of obesity: An empirical brain-exposures-driven candidate selection for in vivo efficacy studies” (Bioorg Med Chem Lett, 2015)

What was measured:
[1] = molecular target: T1, Melanin-concentrating hormone receptor 1 (Homo sapiens, UniProt Q99705); experiment: Displacement of [125I][Phe13,Tyr19]-MCH from human MCHR1 expressed in HEK293 cells by scintillation counting analysis; format: cell-based
[2] = molecular target: Melanin-concentrating hormone receptor 1 (Rattus norvegicus, UniProt P97639); experiment: Displacement of [125I][Phe13,Tyr19]-MCH from rat MCHR1 by scintillation counting analysis
Sequence of Melanin-concentrating hormone receptor 1 (Rattus norvegicus, UniProt P97639) (P97639 whole entry): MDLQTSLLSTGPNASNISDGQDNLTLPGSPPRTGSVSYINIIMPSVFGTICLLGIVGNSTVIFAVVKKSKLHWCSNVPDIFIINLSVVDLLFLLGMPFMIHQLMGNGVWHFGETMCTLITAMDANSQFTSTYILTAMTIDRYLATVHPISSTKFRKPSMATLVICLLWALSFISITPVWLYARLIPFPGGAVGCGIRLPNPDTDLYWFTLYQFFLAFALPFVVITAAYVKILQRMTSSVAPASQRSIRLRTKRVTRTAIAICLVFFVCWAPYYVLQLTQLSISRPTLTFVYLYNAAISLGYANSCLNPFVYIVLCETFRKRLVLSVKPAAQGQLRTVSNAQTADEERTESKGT

[3] = molecular target: T1, Melanin-concentrating hormone receptor 1; experiment: Antagonist activity at human MCHR1 expressed in HEK293 cells assessed as inhibition of MCH-induced Ca2+ influx for 120 mins by FLIPR assay; format: functional, cell-based
Nucleic Acid [4] = experiment: Ratio of drug level in Sprague-Dawley rat brain to plasma assessed as (S)-6-(4-chlorophenyl)-3-(4-(3-(ethylsulfonyl)-2-hydroxypropoxy)-3-methoxyphenyl)pyrrolo[1,2-f][1,2,4]triazin-4(3H)-one level at 10 mg/kg, po qd; format: ADME, organism-based
Brain [5] = experiment: Drug concentration in Sprague-Dawley rat brain assessed as (S)-6-(4-chlorophenyl)-3-(4-(3-(ethylsulfonyl)-2-hydroxypropoxy)-3-methoxyphenyl)pyrrolo[1,2-f][1,2,4]triazin-4(3H)-one level at 10 mg/kg, po qd at 8 hrs; format: ADME, organism-based; details: in vivo, read-out: Drug uptake
Plasma [6] = experiment: Plasma concentration in Sprague-Dawley rat assessed as (S)-6-(4-chlorophenyl)-3-(4-(3-(ethylsulfonyl)-2-hydroxypropoxy)-3-methoxyphenyl)pyrrolo[1,2-f][1,2,4]triazin-4(3H)-one level at 10 mg/kg, po qd at 8 hrs; format: ADME, organism-based; details: in vivo
[7] = molecular target: T2, Voltage-gated inwardly rectifying potassium channel KCNH2 (Homo sapiens, UniProt Q12809); experiment: Inhibition of human ERG expressed in CHO cells assessed as channel current by Q-patch electrophysiological assay; format: cell-based
T2 sequence (Q12809 whole entry): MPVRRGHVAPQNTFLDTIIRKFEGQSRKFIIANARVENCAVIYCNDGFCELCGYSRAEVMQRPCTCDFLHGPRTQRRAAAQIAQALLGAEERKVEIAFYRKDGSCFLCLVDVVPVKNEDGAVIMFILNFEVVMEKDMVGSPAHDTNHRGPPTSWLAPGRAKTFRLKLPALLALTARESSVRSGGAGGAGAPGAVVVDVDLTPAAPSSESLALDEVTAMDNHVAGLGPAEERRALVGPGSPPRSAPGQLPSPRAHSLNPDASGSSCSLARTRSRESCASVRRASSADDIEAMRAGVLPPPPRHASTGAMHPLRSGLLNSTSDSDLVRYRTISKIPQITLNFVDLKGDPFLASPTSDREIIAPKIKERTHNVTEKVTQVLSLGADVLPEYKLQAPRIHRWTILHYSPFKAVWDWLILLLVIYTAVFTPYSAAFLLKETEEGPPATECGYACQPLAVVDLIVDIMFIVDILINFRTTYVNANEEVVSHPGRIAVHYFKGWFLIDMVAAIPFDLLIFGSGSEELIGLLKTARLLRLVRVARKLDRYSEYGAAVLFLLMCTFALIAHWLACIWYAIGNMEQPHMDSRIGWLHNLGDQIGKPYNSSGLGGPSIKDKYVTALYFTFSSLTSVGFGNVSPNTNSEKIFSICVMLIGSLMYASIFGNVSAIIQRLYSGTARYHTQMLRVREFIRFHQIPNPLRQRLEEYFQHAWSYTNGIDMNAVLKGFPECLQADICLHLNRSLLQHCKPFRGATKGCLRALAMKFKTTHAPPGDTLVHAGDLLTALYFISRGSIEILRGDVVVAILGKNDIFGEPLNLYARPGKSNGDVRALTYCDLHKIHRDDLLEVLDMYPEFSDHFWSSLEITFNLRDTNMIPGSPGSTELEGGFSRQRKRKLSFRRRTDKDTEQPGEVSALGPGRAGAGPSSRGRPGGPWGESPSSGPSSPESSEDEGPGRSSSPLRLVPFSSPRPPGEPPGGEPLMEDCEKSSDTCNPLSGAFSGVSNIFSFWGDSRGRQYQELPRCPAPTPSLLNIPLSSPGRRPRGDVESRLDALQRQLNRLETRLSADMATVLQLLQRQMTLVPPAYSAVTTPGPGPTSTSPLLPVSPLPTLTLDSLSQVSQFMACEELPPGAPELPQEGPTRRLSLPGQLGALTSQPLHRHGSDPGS

[8] = molecular target: T2, Voltage-gated inwardly rectifying potassium channel KCNH2; experiment: Inhibition of human ERG by flux assay
Brain [9] = experiment: Drug concentration in Sprague-Dawley rat brain assessed as (R)-6-(4-chlorophenyl)-3-(4-(3-hydroxypyrrolidin-1-yl)-3-methoxyphenyl)pyrrolo[1,2-f][1,2,4]triazin-4(3H)-one level at 10 mg/kg, po qd at 8 hrs; format: ADME, organism-based; details: in vivo, read-out: Drug uptake
Plasma [10] = experiment: Plasma concentration in Sprague-Dawley rat assessed as (R)-6-(4-chlorophenyl)-3-(4-(3-hydroxypyrrolidin-1-yl)-3-methoxyphenyl)pyrrolo[1,2-f][1,2,4]triazin-4(3H)-one level at 10 mg/kg, po qd at 8 hrs; format: ADME, organism-based; details: in vivo
Nucleic Acid [11] = experiment: Ratio of drug level in Sprague-Dawley rat brain to plasma assessed as (R)-6-(4-chlorophenyl)-3-(4-(3-hydroxypyrrolidin-1-yl)-3-methoxyphenyl)pyrrolo[1,2-f][1,2,4]triazin-4(3H)-one level at 10 mg/kg, po qd; format: ADME, organism-based
Liver = experiment: Drug level in oral-dosed Sprague-Dawley rat liver treated with (2S)-1-(4-(6-(4-chlorophenyl)-4-oxopyrrolo[1,2-f][1,2,4]triazin-3(4H)-yl)-2-methoxyphenoxy)propan-2-yl 2-amino-3-methylbutanoate; format: ADME, tissue-based; details: in vivo
Nucleic Acid [12] = experiment: Ratio of drug level in Sprague-Dawley rat brain to plasma assessed as (R)-6-(5-chloropyridin-2-yl)-3-(4-(2-cyclopropyl-2-hydroxyethoxy)-3-methoxyphenyl)pyrrolo[1,2-f][1,2,4]triazin-4(3H)-one level at 10 mg/kg, po qd; format: ADME, organism-based
Plasma [13] = experiment: Plasma concentration in Sprague-Dawley rat assessed as (R)-6-(5-chloropyridin-2-yl)-3-(4-(2-cyclopropyl-2-hydroxyethoxy)-3-methoxyphenyl)pyrrolo[1,2-f][1,2,4]triazin-4(3H)-one level at 10 mg/kg, po qd at 8 hrs; format: ADME, organism-based; details: in vivo
Brain [14] = experiment: Drug concentration in Sprague-Dawley rat brain assessed as (R)-6-(5-chloropyridin-2-yl)-3-(4-(2-cyclopropyl-2-hydroxyethoxy)-3-methoxyphenyl)pyrrolo[1,2-f][1,2,4]triazin-4(3H)-one level at 10 mg/kg, po qd at 8 hrs; format: ADME, organism-based; details: in vivo, read-out: Drug uptake
Brain [15] = experiment: Drug concentration in Sprague-Dawley rat brain assessed as 6-(5-chloropyridin-2-yl)-3-(4-(2-cyclopropyl-2-hydroxyethoxy)-3-methoxyphenyl)pyrrolo[1,2-f][1,2,4]triazin-4(3H)-one level at 10 mg/kg, po qd at 8 hrs; format: ADME, organism-based; details: in vivo, read-out: Drug uptake
Nucleic Acid [16] = experiment: Ratio of drug level in Sprague-Dawley rat brain to plasma assessed as 6-(5-chloropyridin-2-yl)-3-(4-(2-cyclopropyl-2-hydroxyethoxy)-3-methoxyphenyl)pyrrolo[1,2-f][1,2,4]triazin-4(3H)-one level at 10 mg/kg, po qd; format: ADME, organism-based
Plasma [17] = experiment: Plasma concentration in Sprague-Dawley rat assessed as 6-(5-chloropyridin-2-yl)-3-(4-(2-cyclopropyl-2-hydroxyethoxy)-3-methoxyphenyl)pyrrolo[1,2-f][1,2,4]triazin-4(3H)-one level at 10 mg/kg, po qd at 8 hrs; format: ADME, organism-based; details: in vivo
Rattus norvegicus = experiment: Drug level in oral-dosed Sprague-Dawley rat treated with 1-(4-(6-(4-chlorophenyl)-4-oxothieno[3,2-d]pyrimidin-3(4H)-yl)-2-methoxyphenoxy)-2-methylpropan-2-yl 2-aminoacetate; format: ADME, organism-based; details: in vivo
hERG (KCNH2) = hERG (KCNH2) (Homo sapiens, UniProt Q12809); experiment: Inhibition of human ERG at 1 uM by flux assay
Sequence of hERG (KCNH2) (Q12809 whole entry): as above

T1 sequence (Q99705 whole entry): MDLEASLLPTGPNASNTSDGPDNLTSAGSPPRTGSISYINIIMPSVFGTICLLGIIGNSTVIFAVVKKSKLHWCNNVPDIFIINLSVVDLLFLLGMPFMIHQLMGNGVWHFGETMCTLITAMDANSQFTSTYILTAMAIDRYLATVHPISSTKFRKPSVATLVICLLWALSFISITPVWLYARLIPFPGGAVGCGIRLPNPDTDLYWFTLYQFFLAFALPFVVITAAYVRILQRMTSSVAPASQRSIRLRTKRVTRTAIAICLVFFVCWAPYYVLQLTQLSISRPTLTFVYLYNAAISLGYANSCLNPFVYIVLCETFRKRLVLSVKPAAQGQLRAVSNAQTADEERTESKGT

| Ki [1] | Ki [2] | Structure (SMILES) | also measured |
| --- | --- | --- | --- |
| 13 nM | 12 nM | COc1cc(-n2cnn3cc(-c4ccc(Cl)cn4)cc3c2=O)ccc1OCC(O)C1CC1 (stereo unspecified) | – |
| 0.8 nM | 1.4 nM | O=c1c2cc(-c3ccc(Cl)cc3)cn2ncn1-c1ccc(N2CCC(N3CC(O)C3)C2)nc1 (stereo unspecified) | IC50 [8]: 2000 nM |
| 76 nM | 87 nM | COc1ccc(-n2cnn3cc(-c4ccc(Cl)cc4)nc3c2=O)cc1OC | – |
| 6.5 nM | 12 nM | COc1cc(-n2cnn3cc(-c4ccc(Cl)cn4)cc3c2=O)ccc1OC[C@H](O)C1CC1 | – |
| 124 nM | 54 nM | O=c1c2cc(-c3ccc(Cl)cn3)cn2ncn1-c1ccc(N2CC[C@@H](O)C2)nc1 | – |

Further lines, the molecule ahead of its results:

| Structure (SMILES) | Ki [1] | Ki [2] | also measured |
| --- | --- | --- | --- |
| COc1cc(-n2cnn3cc(-c4ccc(Cl)cc4)cc3c2=O)ccc1OCC(C)(C)O | 2.3 nM | 1.8 nM | IC50 [3]: 44 nM |
| CCS(=O)(=O)C[C@H](COc1ccc(-n2cnn3cc(-c4ccc(Cl)cc4)cc3c2=O)cc1OC)OC(=O)CN | – | – | BPR (Nucleic Acid [4]): 0.1; concentration (Brain [5]): 175 nM; concentration (Plasma [6]): 1830 nM |
| COc1cc(-n2cnn3cc(-c4ccc(Cl)cn4)cc3c2=O)ccc1N1CC[C@@H](O)C1 | 9.1 nM | 9.6 nM | – |
| O=c1c2cc(-c3ccc(Cl)cc3)cn2ncn1-c1ccc(N2CCC(O)CC2)nc1 | 12 nM | 18 nM | IC50 [7]: > 10 µM; IC50 [8]: > 80000 nM |
| COc1cc(-n2cnn3cc(-c4ccc(Cl)cc4)cc3c2=O)ccc1N1CC[C@@H](OC(=O)[C@@H](N)C(C)C)C1 | – | – | concentration (Brain [9]): 966 nM; concentration (Plasma [10]): 339 nM; BPR (Nucleic Acid [11]): 2.9 |
| COc1cc(-n2cnn3cc(-c4ncc(Cl)cn4)cc3c2=O)ccc1OCC(C)(C)O | 13 nM | 15 nM | – |
| COc1ccc(-n2cnn3cc(-c4ccc(Cl)cc4)cc3c2=O)cc1OC | 21 nM | 8 nM | – |
| COc1cc(-n2cnn3cc(-c4ccc(Cl)cc4)cc3c2=O)ccc1OCC(O)CO (stereo unspecified) | – | – | Drug metabolism (Liver): metabolite_detected |
| CCS(=O)(=O)C[C@@H](O)COc1ccc(-n2cnn3cc(-c4ccc(Cl)cn4)cc3c2=O)cc1OC | 15 nM | 8.7 nM | – |
| COc1cc(-n2cnn3cc(-c4ccc(Cl)cc4)cc3c2=O)ccc1OCC(O)C(=O)O (stereo unspecified) | – | – | Drug metabolism (Liver): metabolite_detected |
| COc1cc(-n2cnn3cc(-c4ccc(Cl)cn4)cc3c2=O)ccc1OC[C@H](OC(=O)CN)C1CC1 | – | – | BPR (Nucleic Acid [12]): 0.2; concentration (Plasma [13]): 7.45 µM; concentration (Brain [14]): 1150 nM |
| COc1cc(-n2cnn3cc(-c4ccc(Cl)cc4)cc3c2=O)ccc1OCC1(O)CC(F)(F)C1 | 3.4 nM | 3.8 nM | – |
| COc1cc(-n2cnn3cc(-c4ccc(Cl)cn4)cc3c2=O)ccc1OCC(OC(=O)[C@@H](N)C(C)C)C1CC1 (stereo partly specified) | – | – | concentration (Brain [15]): 2040 nM; BPR (Nucleic Acid [16]): 0.2; concentration (Plasma [17]): 10.2 µM |
| COc1cc(-n2cnc3cc(-c4ccc(Cl)cc4)sc3c2=O)ccc1OCC(C)(O)C(=O)O (stereo unspecified) | – | – | Drug metabolism (Rattus norvegicus): metabolite_detected |
| O=c1c2cc(-c3ccc(Cl)cc3)cn2ncn1-c1ccc(N2CC[C@@H](O)C2)nc1 | 5.3 nM | 5.5 nM | inhibition at 1 µM (hERG (KCNH2)): 26% |
